Reference: ChEMBL document CHEMBL1137178, “Design, synthesis and antimalarial activity of a glyoxylylhydrazone library” (Bioorg Med Chem Lett, 2004)

Experiments:
[1] = molecular target: T1, Histidine-rich protein PFHRP-II (Plasmodium falciparum) (UniProt P05227); assay: In vitro inhibition of beta-hematin formation in Plasmodium falciparum at 100 uM; type: functional
T1 sequence (whole entry): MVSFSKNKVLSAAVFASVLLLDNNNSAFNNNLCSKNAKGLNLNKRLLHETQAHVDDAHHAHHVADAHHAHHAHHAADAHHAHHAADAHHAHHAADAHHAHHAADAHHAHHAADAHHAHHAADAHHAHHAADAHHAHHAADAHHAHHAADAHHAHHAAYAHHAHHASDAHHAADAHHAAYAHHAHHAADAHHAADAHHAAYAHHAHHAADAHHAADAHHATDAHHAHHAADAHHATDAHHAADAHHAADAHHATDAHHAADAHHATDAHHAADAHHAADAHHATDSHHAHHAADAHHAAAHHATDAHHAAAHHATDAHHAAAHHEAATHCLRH

[2] = test system: Plasmodium falciparum; assay: Inhibitory concentration against chloroquine-resistant Plasmodium falciparum FcB1; type: functional, organism-based
[3] = test system: Plasmodium falciparum; assay: Growth inhibitory concentration against chloroquine-resistant Plasmodium falciparum; type: functional, organism-based
[4] = test system: MRC5; assay: Selectivity index measured as CC50/IC50; type: functional, Homo sapiens
[5] = test system: MRC5; assay: Cytotoxic effect on human diploid embryonic lung cell line (MRC-5) using the colorimetric MTT assay; type: functional
[6] = test system: Plasmodium falciparum; assay: Growth inhibition against Plasmodium falciparum FcB1 at 200 nM; type: functional

SMILES	inhibition [1]	IC50 [2]	IC50 [3]	SI [4]	CC50 [5]	inhibition at 0.2 µM [6]
O=C(/C=N/Nc1ccc(F)cc1F)NCCCCCCCNc1ccnc2cc(Cl)ccc12	0%	105 nM	–	–	–	–
CC(C)(C)N/N=C/C(=O)NCCCCCCCNc1ccnc2cc(Cl)ccc12	0%	60 nM	–	–	–	–
O=C(/C=N/Nc1c(Cl)cc(C(F)(F)F)cc1Cl)NCCCCCCCNc1ccnc2cc(Cl)ccc12	7%	16 nM	88.7 nM	104	9200 nM	–
O=C(/C=N/Nc1cnc2ccccc2n1)NCCCCCCCNc1ccnc2cc(Cl)ccc12	0%	90 nM	–	–	–	–
COc1ccc2nc(N/N=C/C(=O)NCCCCCCCNc3ccnc4cc(Cl)ccc34)nnc2c1	28%	45 nM	73.7 nM	34	2500 nM	–
C=CCO/N=C/C(=O)NCCCCCCCNc1ccnc2cc(Cl)ccc12	3%	> 500 nM	–	–	–	–
CC(C)(C)O/N=C/C(=O)NCCCCCCCNc1ccnc2cc(Cl)ccc12	0%	–	–	–	–	14%
O=C(/C=N/Nc1ccc(F)c(Cl)c1)NCCCCCCCNc1ccnc2cc(Cl)ccc12	0%	200 nM	–	–	–	–
Cc1cc(N/N=C/C(=O)NCCCCCCCNc2ccnc3cc(Cl)ccc23)nc(C)n1	19%	–	–	–	–	0%
CO/N=C/C(=O)NCCCCCCCNc1ccnc2cc(Cl)ccc12	4%	–	–	–	–	11%
O=C(/C=N/OCc1c(F)c(F)c(F)c(F)c1F)NCCCCCCCNc1ccnc2cc(Cl)ccc12	0%	–	–	–	–	33%
Cc1ccc(N/N=C/C(=O)NCCCCCCCNc2ccnc3cc(Cl)ccc23)c(C)c1	8%	86 nM	–	–	–	–
CCOCC(=O)N/N=C/C(=O)NCCCCCCCNc1ccnc2cc(Cl)ccc12	12%	–	–	–	–	59%
Cc1cc(N/N=C/C(=O)NCCCCCCCNc2ccnc3cc(Cl)ccc23)nc2c1c(C)nn2C	0%	30 nM	63.9 nM	28	1800 nM	–
CCN(CC)CCCC(C)Nc1ccnc2cc(Cl)ccc12 (centres undefined) [CHLOROQUINE]	55%	–	–	–	50000 nM	–
O=C(/C=N/NCc1ccccc1)NCCCCCCCNc1ccnc2cc(Cl)ccc12	0%	35 nM	161 nM	91	14600 nM	–
O=C(/C=N/Nc1ccc([N+](=O)[O-])cc1[N+](=O)[O-])NCCCCCCCNc1ccnc2cc(Cl)ccc12	25%	13 nM	47.3 nM	235	11100 nM	–
CC(C)(C)c1ccc(N/N=C/C(=O)NCCCCCCCNc2ccnc3cc(Cl)ccc23)cc1	1%	–	–	–	–	32%
O=C(/C=N/OCc1ccc([N+](=O)[O-])cc1)NCCCCCCCNc1ccnc2cc(Cl)ccc12	0%	5 nM	62.3 nM	27	1700 nM	–
O=C(/C=N/O)NCCCCCCCNc1ccnc2cc(Cl)ccc12	6%	–	–	–	–	10%
O=C(/C=N/Nc1ccc(Cl)cc1Cl)NCCCCCCCNc1ccnc2cc(Cl)ccc12	12%	–	–	–	–	0%
O=C(/C=N/Nc1ccc(Cl)nn1)NCCCCCCCNc1ccnc2cc(Cl)ccc12	0%	180 nM	–	–	–	–
O=C(/C=N/Nc1ccccc1)NCCCCCCCNc1ccnc2cc(Cl)ccc12	0%	–	–	–	–	0%
O=C(/C=N/OCc1ccccc1)NCCCCCCCNc1ccnc2cc(Cl)ccc12	0%	–	–	–	–	29%
COC(=O)c1sccc1N/N=C/C(=O)NCCCCCCCNc1ccnc2cc(Cl)ccc12	11%	–	–	–	–	13%
CN(/N=C/C(=O)NCCCCCCCNc1ccnc2cc(Cl)ccc12)c1ncccc1[N+](=O)[O-]	18%	–	–	–	–	3%
O=C(/C=N/Nc1ccnc2cc(Cl)ccc12)NCCCCCCCNc1ccnc2cc(Cl)ccc12	0%	7 nM	19.3 nM	73	1400 nM	–
O=C(/C=N/Nc1nc(-c2cccs2)ns1)NCCCCCCCNc1ccnc2cc(Cl)ccc12	19%	–	–	–	–	8%
CCO/N=C/C(=O)NCCCCCCCNc1ccnc2cc(Cl)ccc12	0%	–	–	–	–	11%
